Source: patent US10526314B2, “Hydroxyalkyl-substituted heteroaryltriazole derivatives and uses thereof” (BAYER AKTIENGESELLSCHAFT, priority 2016, dated 2020)

What was measured:
human V2 receptor = target: T1, human V2 receptor (Homo sapiens, UniProt P30518); assay: Cellular in vitro assay for determining vasopressin receptor activity (V2, CRE-luciferase); assay type: cell-based; details: CHO cell line transfected with human V2 receptor; [Arg8]-vasopressin at EC50 concentration; read-out: IC50 hV2
T1 construct: expressed in transfected cells; host or cells: CHO K1 (ATCC) expressing firefly luciferase under a CRE-responsive promoter
Protocol: (§1) B-1. Cellular In Vitro Assay for Determining Vasopressin Receptor Activity
(§2) The identification of agonists and antagonists of the V1a and V2 vasopressin receptors from humans, rats and dogs as well as the quantification of the activity of the compounds of the invention is carried out using recombinant cell lines. These cell lines originally derive from a hamster's ovary epithelial cell (Chinese Hamster Ovary, CHO K1, ATCC: American Type Culture Collection, Manassas, Va. 20108, USA). The test cell lines constitutively express the human, rat or dog V1a or V2 receptors. In case of the Gαq-coupled V1a receptors, cells are also stably transfected with a modified form of the calcium-sensitive photoproteins aequorin (human and rat V1a) or obelin (dog V1a), which, after reconstitution with the cofactor coelenterazine, emit light when there are increases in free calcium concentrations [Rizzuto R, Simpson A W, Brini M, Pozzan T, Nature 358, 325-327 (1992); Illarionov B A, Bondar V S, Illarionova V A, Vysotski E S, Gene 153 (2), 273-274 (1995)]. The resulting vasopressin receptor cells react to stimulation of the recombinantly expressed V1a receptors by intracellular release of calcium ions, which can be quantified by the resulting photoprotein luminescence. The Gs-coupled V2 receptors are stably transfected into cell lines expressing the gene for firefly luciferase under control of a CRE-responsible promoter. Activation of V2 receptors induces the activation of the CRE-responsive promoter via cAMP increase, thereby inducing the expression of firefly luciferase. The light emitted by photoproteins of V1a cell lines as well as the light emitted by firefly luciferase of V2 cell lines corresponds to the activation or inhibition of the respective vasopressin receptor. The bioluminescence of the cell lines is detected using a suitable luminometer [Milligan G, Marshall F, Rees S, Trends in Pharmacological Sciences 17, 235-237 (1996)].
Vasopressin V2 Receptor Cell Lines:
On the day before the assay, the cells are plated out in culture medium (DMEM/F12, 2% FCS, 2 mM glutamine, 10 mM HEPES) in 384-well microtiter plates and kept in a cell incubator (96% humidity, 5% v/v CO2, 37° C.). On the day of the assay, test compounds in various concentrations and the agonist [Arg^8]-vasopressin at EC50 concentration are added together to the wells, and plates are incubated for 3 hours in a cell incubator. Upon addition of the cell lysis reagent Triton™ and the substrate luciferin, luminescence of firefly luciferase is measured in a luminometer.
(§3) Table 1A below lists individual IC50 values for the compounds of the invention (including racemic mixtures as well as separated enantiomers) that were obtained from cell lines transfected with the human V1a or V2 receptor: […]

human V1a receptor = target: T2, human V1a receptor (Homo sapiens, UniProt P37288); assay: Cellular in vitro assay for determining vasopressin receptor activity (V1a, aequorin luminescence); assay type: cell-based; details: for IC50: CHO cell line transfected with human V1a receptor, [Arg8]-vasopressin at EC50 concentration, read-out: IC50 hV1a; for ratio IC50 hV2/hV1a: selectivity ratio IC50 hV2 / IC50 hV1a
T2 construct: expressed in transfected cells; host or cells: CHO K1 (ATCC), also stably transfected with a modified aequorin
Protocol: as §1, §2
Vasopressin V1a Receptor Cell Lines:
On the day before the assay, the cells are plated out in culture medium (DMEM/F12, 2% FCS, 2 mM glutamine, 10 mM HEPES, 5 μg/ml coelenterazine) in 384-well microtiter plates and kept in a cell incubator (96% humidity, 5% v/v CO2, 37° C.). On the day of the assay, test compounds in various concentrations are placed for 10 minutes in the wells of the microtiter plate before the agonist [Arg^8]-vasopressin at EC50 concentration is added. The resulting light signal is measured immediately in a luminometer.
as §3

T2 sequence (P37288 whole entry): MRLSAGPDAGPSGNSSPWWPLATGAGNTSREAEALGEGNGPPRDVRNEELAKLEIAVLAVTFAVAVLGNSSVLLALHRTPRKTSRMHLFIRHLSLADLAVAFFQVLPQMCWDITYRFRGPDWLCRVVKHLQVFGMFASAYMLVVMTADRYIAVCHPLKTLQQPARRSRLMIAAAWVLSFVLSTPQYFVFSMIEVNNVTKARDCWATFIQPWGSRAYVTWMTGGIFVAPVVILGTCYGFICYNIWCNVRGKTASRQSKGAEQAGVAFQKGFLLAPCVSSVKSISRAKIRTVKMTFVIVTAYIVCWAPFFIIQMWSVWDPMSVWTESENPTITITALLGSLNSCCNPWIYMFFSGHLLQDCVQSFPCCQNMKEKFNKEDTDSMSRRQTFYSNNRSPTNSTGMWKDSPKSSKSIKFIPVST
T1 sequence (P30518 whole entry): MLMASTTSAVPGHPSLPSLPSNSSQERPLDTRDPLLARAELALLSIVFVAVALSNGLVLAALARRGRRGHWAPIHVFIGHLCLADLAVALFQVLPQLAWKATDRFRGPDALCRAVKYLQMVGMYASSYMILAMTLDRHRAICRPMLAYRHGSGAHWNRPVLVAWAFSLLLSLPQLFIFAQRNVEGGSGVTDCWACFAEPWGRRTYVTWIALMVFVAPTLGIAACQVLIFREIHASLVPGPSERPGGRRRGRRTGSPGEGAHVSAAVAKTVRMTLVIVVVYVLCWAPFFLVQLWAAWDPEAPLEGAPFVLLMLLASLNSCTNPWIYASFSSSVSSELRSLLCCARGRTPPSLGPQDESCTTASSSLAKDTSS

| IC50 (human V2 receptor) [nM] | IC50 (human V1a receptor) [nM] | ratio IC50 hV2/hV1a (human V1a receptor) | SMILES |
| --- | --- | --- | --- |
| 8.07 | 0.57 | 14.2 | C[C@H](O)c1nc(Cn2nc(-c3ccc(Cl)cc3)n(C[C@H](O)C(F)(F)F)c2=O)nn1-c1ncccc1Cl [Example 3, 5-(4-Chlorophenyl)-2-({1-(3-chloropyridin-2-yl)-5-[(1S)-1-hydroxyethyl]-1H-1,2,4-triazol-3-yl}methyl)-4-[(2S)-3,3,3-trifluoro-2-hydroxypropyl]-2,4-dihydro-3H-1,2,4-triazol-3-one] |
| 138 | 68.1 | 2.0 | C[C@H](O)c1nc(Cn2nc(-c3ccc(Cl)cc3)n(C[C@H](O)C(F)(F)F)c2=O)nn1-c1nccn1C [Example 22, 5-(4-Chlorophenyl)-2-({5-[(1S)-1-hydroxyethyl]-1-(1-methyl-1H-imidazol-2-yl)-1H-1,2,4-triazol-3-yl}methyl)-4-[(2S)-3,3,3-trifluoro-2-hydroxypropyl]-2,4-dihydro-3H-1,2,4-triazol-3-one] |
| 170 | 4.9 | 35.1 | C[C@@H](O)c1nc(Cn2nc(-c3ccc(Cl)cc3)n(C[C@H](O)C(F)(F)F)c2=O)nn1-c1ncccc1C(F)(F)F [Example 31, 5-(4-chlorophenyl)-2-({5-[(1R)-1-hydroxyethyl]-1-[3-(trifluoromethyl)pyridin-2-yl]-1H-1,2,4-triazol-3yl}methyl)-4-[(2S)-3,3,3-trifluoro-2-hydroxypropyl]-2,4-dihydro-3H-1,2,4-triazol-3-one] |
| 8.65 | 1.3 | 6.7 | C[C@@H](O)c1nc(Cn2nc(-c3ccc(Cl)cc3)n(C[C@H](O)C(F)(F)F)c2=O)nn1-c1c(Cl)cncc1Cl [Example 4, 5-(4-Chlorophenyl)-2-({1-(3,5-dichloropyridin-4-yl)-5-[(1R)-1-hydroxyethyl]-1H-1,2,4-triazol-3-yl}methyl)-4-[(2S)-3,3,3-trifluoro-2-hydroxypropyl]-2,4-dihydro-3H-1,2,4-triazol-3-one] |
| 65.5 | 6.45 | 10.2 | C[C@H](O)c1nc(Cn2nc(-c3ccc(Cl)cc3)n(C[C@H](O)C(F)(F)F)c2=O)nn1-c1ccccn1 [Example 14, 5-(4-Chlorophenyl)-2-({5-[(1S)-1-hydroxyethyl]-1-(pyridin-2-yl)-1H-1,2,4-triazol-3-yl}methyl)-4-[(2S)-3,3,3-trifluoro-2-hydroxypropyl]-2,4-dihydro-3H-1,2,4-triazol-3-one] |
| 64.7 | 5.7 | 11.3 | C[C@H](O)c1nc(Cn2nc(-c3ccc(Cl)cc3)n(C[C@H](O)C(F)(F)F)c2=O)nn1-c1ncccc1OC(F)(F)F [Example 12, 5-(4-Chlorophenyl)-2-({5-[(1S)-1-hydroxyethyl]-1-[3-(trifluoromethoxy)pyridin-2-yl]-1H-1,2,4-triazol-3-yl}methyl)-4-[(2S)-3,3,3-trifluoro-2-hydroxypropyl]-2,4-dihydro-3H-1,2,4-triazol-3-one] |
| 15.2 | 7.71 | 2.0 | CC(O)c1nc(Cn2nc(-c3ccc(Cl)cc3)n(C[C@H](O)C(F)(F)F)c2=O)nn1-c1cncc(Cl)c1 (single isomer, unassigned) [Example 29] |
| 39.5 | 14.5 | 2.7 | C[C@H](O)c1nc(Cn2nc(-c3ccc(Cl)cc3)n(C[C@H](O)C(F)(F)F)c2=O)nn1-c1cccc(F)n1 [Example 17, 5-(4-Chlorophenyl)-2-({1-(6-fluoropyridin-2-yl)-5-[(1S)-1-hydroxyethyl]-1H-1,2,4-triazol-3-yl}methyl)-4-[(2S)-3,3,3-trifluoro-2-hydroxypropyl]-2,4-dihydro-3H-1,2,4-triazol-3-one] |
| 320 | 29.5 | 10.8 | C[C@H](O)c1nc(Cn2nc(-c3ccc(Cl)cc3)n(C[C@H](O)C(F)(F)F)c2=O)nn1-c1cnccn1 [Example 19, 5-(4-Chlorophenyl)-2-({5-[(1S)-1-hydroxyethyl]-1-(pyrazin-2-yl)-1H-1,2,4-triazol-3-yl}methyl)-4-[(2S)-3,3,3-trifluoro-2-hydroxypropyl]-2,4-dihydro-3H-1,2,4-triazol-3-one] |
| 40.3 | 2.35 | 17.2 | C[C@@H](O)c1nc(Cn2nc(-c3ccc(Cl)cc3)n(C[C@H](O)C(F)(F)F)c2=O)nn1-c1ccncc1Cl [Example 6, 5-(4-Chlorophenyl)-2-({1-(3-chloropyridin-4-yl)-5-[(1R)-1-hydroxyethyl]-1H-1,2,4-triazol-3-yl}methyl)-4-[(2S)-3,3,3-trifluoro-2-hydroxypropyl]-2,4-dihydro-3H-1,2,4-triazol-3-one] |
| 235 | 47.6 | 4.9 | C[C@H](O)c1nc(Cn2nc(-c3ccc(Cl)cc3)n(C[C@H](O)C(F)(F)F)c2=O)nn1-c1cccnn1 [Example 20, 5-(4-Chlorophenyl)-2-({5-[(1S)-1-hydroxyethyl]-1-(pyridazin-3-yl)-1H-1,2,4-triazol-3-yl}methyl)-4-[(25)-3,3,3-trifluoro-2-hydroxypropyl]-2,4-dihydro-3H-1,2,4-triazol-3-one] |
| 16 | 3 | 5.3 | C[C@H](O)c1nc(Cn2nc(-c3ccc(Cl)cc3)n(C[C@H](O)C(F)(F)F)c2=O)nn1-c1ccncc1Cl [Example 7, 5-(4-Chlorophenyl)-2-({1-(3-chloropyridin-4-yl)-5-[(1S)-1-hydroxyethyl]-1H-1,2,4-triazol-3-yl}methyl)-4-[(2S)-3,3,3-trifluoro-2-hydroxypropyl]-2,4-dihydro-3H-1,2,4-triazol-3-one] |
| 103 | 86.5 | 1.2 | C[C@@H](O)c1nc(Cn2nc(-c3ccc(Cl)cc3)n(C[C@H](O)C(F)(F)F)c2=O)nn1-c1ccccn1 [Example 23, 5-(4-Chlorophenyl)-2-({5-[(1R)-1-hydroxyethyl]-1-(pyridin-2-yl)-1H-1,2,4-triazol-3-yl}methyl)-4-[(2S)-3,3,3-trifluoro-2-hydroxypropyl]-2,4-dihydro-3H-1,2,4-triazol-3-one] |
